Data set [1] is described as follows: Ex Vivo Assay for Bioavailability of MMP-3 Inhibitors (plasma level after dosing). It is filed as in vivo. Particulars: rat, po; rats, dosed orally at 100 mg/kg; plasma level read via MMP-3 inhibition against a spiked plasma standard curve. The method, then: Ex Vivo Assay for Bioavailability of MMP-3 Inhibitors
Blood was collected by cardiac puncture from rats at different times after dosing I.V., I.P., or P.O. with compound in order to determine the levels of inhibitor present. Plasma was extracted with 10% TCA in 95% methanol, and placed on ice for 10 minutes. The plasma was then centrifuged for 15 minutes at 14,000 rpm in an Eppendorf microcentrifuge. The supernatant was removed, recentrifuged, and the resulting supernatant was diluted 1:10 in 50 mM tricine, pH 8.5. The pH of the sample was adjusted to 7.5, and then assayed in the MMP-3 substance P fluorescent enzymatic assay. Plasma from naive rats was extracted by the same method and used as a negative control. This plasma was also used to prepare a spiked plasma curve of the compound of interest. Known concentrations of the compound were added to control plasma, the plasma was extracted by the same method, and then assayed in the MMP-3 enzymatic assay. A standard curve was prepared that related percent inhbition in the MMP-3 assay to the concentration of drug added in the spiked samples. Based on the percent inhibition in the presence of plasma from dosed rats, the concentration of compound was determined using the standard curve.

In data set [2] the test system is truncated MMP-3. As to the kind of experiment: Bisacetylated Substance P/MMP-3 Fluorescent Assay. It is filed as biochemical. Conditions: bisacetylated substrate with MMP-3. The source says:
Bisacetylated Substance P/MMP-3 Fluorescent Assay
A high capacity enzymatic assay was developed to detect potential inhibitors of MMP-3. The assay uses a derivative of a peptide substrate, substance P (Arg-Pro-Lys-Pro-Gln-Gln-Phe-Phe-Gly-Leu-Met), which is cleaved by MMP-3 exclusively at the glutamine-phenylalanine bond. In order to adapt this assay for high throughput screening, we have developed a fluorimetric method of product detection. The production of the hydrolysis product, substance P 7-11, is measured by reaction with fluorescamine, a fluorogenic compound which reacts with the primary amine of this fragment. The substance P substrate is bisacetylated to block the primary amines of the intact substrate. Thus, the resulting fluorescence represents generation of product (7-11 peptide) formed upon cleavage by MMP-3, and is quantitated using a standard curve prepared with known concentrations of 7-11 peptide.
To evaluate inhibition of MMP-3, compounds were prepared at a concentration of 10 mM in 100% methanol, and then further diluted to a 20× molar stock. Five microliters of each drug stock was added to the assay in the presence of 20 nM truncated MMP-3 in 67.5 mM tricine (pH 7.5), 10 mM CaCl2, 40 mM NaCl, and 0.005% Brij 35 in a final volume of 100 microliters. Bisacetylated substance P ([…]) was added, and the assay was run for 1 hour at 25° C. […]

Chain of truncated MMP-3 (P08254 100-272 limits assumed): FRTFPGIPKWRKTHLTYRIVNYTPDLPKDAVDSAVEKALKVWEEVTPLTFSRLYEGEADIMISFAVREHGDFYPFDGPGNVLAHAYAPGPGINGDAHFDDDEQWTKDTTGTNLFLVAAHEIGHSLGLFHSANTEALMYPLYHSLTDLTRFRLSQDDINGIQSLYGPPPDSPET

In general, Cmax refers to the highest concentration seen after dosing. The compound `CC(C)C[C@@H](C(=O)N[C@H](c1nc2cc(Cl)ccc2[nH]1)C(C)(C)C)[C@H](O)C(=O)NO` [Example 86, N-[1(S)-(5-chloro-2-benzimidazolyl)-2,2,2-trimethylethyl]-[3-(N-hydroxyaminocarbonyl)-3(S)-hydroxy-2(R)-isobutyl]propanamide] displayed a Cmax in data set [1] of 960 nM.

Broadly, the Km is the concentration of substrate that gives half-maximal velocity. As for “bisacetylated substrate: bisacetylated derivative of peptide substrate substance P (Arg-Pro-Lys-Pro-Gln-Gln-Phe-Phe-Gly-Leu-Met), cleaved by MMP-3”, in data set [2], the Km turned out to be 769 ± 52 µM and the Vmax was found to be 0.090±0.003 nmoles 7-11 peptide/min.

The values are drawn from patent publication US5703092A, “Hydroxamic acid compounds as metalloprotease and TNF inhibitors” (The DuPont Merck Pharmaceutical Company, priority 1996, dated 1997).
